The values below come from ChEMBL document CHEMBL1201862, “PubChem BioAssay data set” (2004).

Activity calls are given as the source filed them.

The EC50 is the concentration that produces a half-maximal response. A word on the AC50: it is the concentration giving half of the maximal activity seen. For orientation: IC50 means the concentration that gives 50% inhibition.

Data set [1] addresses T1, Endoribonuclease toxin MazF (Escherichia coli K-12, UniProt P0AE70).
T1 sequence (P0AE70 whole entry): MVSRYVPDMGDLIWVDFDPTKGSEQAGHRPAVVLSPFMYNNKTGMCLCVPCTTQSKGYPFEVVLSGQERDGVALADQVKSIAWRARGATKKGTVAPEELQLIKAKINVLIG
Description: MazF toxin RNase activators, dose response, biochemical, fluorescence, single-stranded RNA substrate, uHTS hits (AID 588481). In kind it is functional.

In data set [2] the target is T1, Endoribonuclease toxin MazF. Description: fluorescent RNA oligo signal without MazF, dose response, counter-screen for MazEF activator project, biochemical, fluorescence, single-stranded RNase substrate (AID 588502). Format: functional. In general terms: Counterscreens check selectivity or assay interference.
In data set [3] the target is Cytochrome P450 2C9 (Homo sapiens, UniProt P11712).
In data set [4] the target is Cytochrome P450 3A4 (Homo sapiens, UniProt P08684).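 Also: CYP3A4 tested as one member of a cytochrome P450 panel screen.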
For data set [5], the target named is T2, RNA-binding protein pos-1 (Caenorhabditis elegans, UniProt G5EF15).
T2 sequence (G5EF15 whole entry): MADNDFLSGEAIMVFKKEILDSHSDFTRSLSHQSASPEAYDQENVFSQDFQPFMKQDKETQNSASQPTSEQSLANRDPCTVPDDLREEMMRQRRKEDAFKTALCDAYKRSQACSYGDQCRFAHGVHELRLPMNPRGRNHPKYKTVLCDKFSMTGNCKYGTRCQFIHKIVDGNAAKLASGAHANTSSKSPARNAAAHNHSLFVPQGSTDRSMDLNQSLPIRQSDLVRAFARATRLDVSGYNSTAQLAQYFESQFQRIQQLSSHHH
Briefly: inhibitors of POS-1/mex-3 RNA binding, dose response, biochemical, fluorescence polarization (AID 1964).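 Also: purified POS-1 fused to maltose binding protein made in E. coli; potency of compounds blocking POS-1 binding to fluorescent RNA.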 A general note: Polarisation of emitted light reports the rotation of a fluorescent probe.

Data set [6] deals with T3, Zinc finger protein mex-5 (Caenorhabditis elegans, UniProt Q9XUB2).
T3 sequence (Q9XUB2 whole entry): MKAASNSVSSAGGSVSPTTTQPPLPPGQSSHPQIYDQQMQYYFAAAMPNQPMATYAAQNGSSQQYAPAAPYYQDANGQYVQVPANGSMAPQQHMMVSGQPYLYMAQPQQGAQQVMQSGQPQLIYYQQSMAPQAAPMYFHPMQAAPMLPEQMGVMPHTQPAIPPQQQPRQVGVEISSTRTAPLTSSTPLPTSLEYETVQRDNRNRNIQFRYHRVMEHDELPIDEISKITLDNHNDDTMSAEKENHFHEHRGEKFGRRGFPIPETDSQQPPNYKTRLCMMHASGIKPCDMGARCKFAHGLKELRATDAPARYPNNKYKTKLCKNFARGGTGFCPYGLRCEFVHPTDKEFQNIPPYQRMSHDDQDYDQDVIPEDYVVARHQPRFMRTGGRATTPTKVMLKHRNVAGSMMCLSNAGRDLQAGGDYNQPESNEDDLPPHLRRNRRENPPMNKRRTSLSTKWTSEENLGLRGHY
Description: MEX-5/TCR-2 RNA interaction inhibitors, dose response, biochemical, C. elegans, fluorescence polarization (AID 1960).

Data set [7] concerns the target Eukaryotic translation initiation factor 4E (Mus musculus, UniProt P63073). Description: eIF4E–eIF4G protein interaction inhibitors, dose response, biochemical, TR-FRET (AID 855).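 Also: potency for disrupting eIF4E binding to eIF4GI seen as loss of FRET.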 Format: functional. (In general: TR-FRET usually uses a lanthanide donor and a delayed reading to cut background.)
Data set [8] concerns the target T4, Coagulation factor XII (Homo sapiens, UniProt P00748).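 Also: activated factor XIIa alpha cleaving a fluorogenic AMC peptide substrate; inhibitor potency from loss of enzyme activity.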
T4 sequence (P00748 whole entry): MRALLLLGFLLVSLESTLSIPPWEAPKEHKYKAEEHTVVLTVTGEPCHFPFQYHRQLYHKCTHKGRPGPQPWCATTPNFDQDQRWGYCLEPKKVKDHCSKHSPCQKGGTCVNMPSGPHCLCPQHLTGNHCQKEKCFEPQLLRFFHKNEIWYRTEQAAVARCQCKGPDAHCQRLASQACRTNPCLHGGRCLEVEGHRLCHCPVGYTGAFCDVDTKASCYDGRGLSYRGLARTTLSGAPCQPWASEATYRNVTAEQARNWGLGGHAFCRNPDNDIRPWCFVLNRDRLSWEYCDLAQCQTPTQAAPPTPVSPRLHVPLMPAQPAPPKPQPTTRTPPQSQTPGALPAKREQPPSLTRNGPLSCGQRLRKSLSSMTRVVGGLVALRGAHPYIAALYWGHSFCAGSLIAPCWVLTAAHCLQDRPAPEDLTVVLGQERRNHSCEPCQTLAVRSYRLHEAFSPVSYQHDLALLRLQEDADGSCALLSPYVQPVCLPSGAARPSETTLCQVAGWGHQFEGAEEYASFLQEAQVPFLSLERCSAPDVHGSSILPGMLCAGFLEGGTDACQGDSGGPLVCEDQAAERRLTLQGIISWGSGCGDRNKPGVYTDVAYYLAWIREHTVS
Format: functional.

Data set [9] addresses Melanocortin receptor 4 (Homo sapiens, UniProt P32245). In kind it is functional, cell-based.
The target of data set [10] is T5, Cytochrome P450 1A2 (Homo sapiens, UniProt P05177).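 Also: PubChem cytochrome P450 panel assay, CYP1A2 panel member.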
T5 sequence (P05177 whole entry): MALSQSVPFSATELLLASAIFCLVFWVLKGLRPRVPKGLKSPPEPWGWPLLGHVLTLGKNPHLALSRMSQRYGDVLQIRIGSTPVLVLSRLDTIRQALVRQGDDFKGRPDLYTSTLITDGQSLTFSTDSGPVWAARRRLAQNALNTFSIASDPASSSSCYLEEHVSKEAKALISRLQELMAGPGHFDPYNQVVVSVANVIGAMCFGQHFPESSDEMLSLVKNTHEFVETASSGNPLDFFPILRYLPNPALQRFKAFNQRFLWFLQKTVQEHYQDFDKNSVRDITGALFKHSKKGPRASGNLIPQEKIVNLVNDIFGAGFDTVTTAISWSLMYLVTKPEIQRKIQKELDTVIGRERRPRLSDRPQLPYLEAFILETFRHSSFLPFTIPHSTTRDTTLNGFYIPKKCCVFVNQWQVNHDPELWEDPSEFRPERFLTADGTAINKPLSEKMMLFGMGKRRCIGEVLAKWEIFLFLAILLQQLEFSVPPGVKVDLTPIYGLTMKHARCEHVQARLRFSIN

The target of data set [11] is Glyceraldehyde-3-phosphate dehydrogenase (Homo sapiens, UniProt P04406).
Data set [12] has as its target T6, Alkaline phosphatase, tissue-nonspecific isozyme (Homo sapiens, UniProt P05186).
T6 sequence (P05186 whole entry): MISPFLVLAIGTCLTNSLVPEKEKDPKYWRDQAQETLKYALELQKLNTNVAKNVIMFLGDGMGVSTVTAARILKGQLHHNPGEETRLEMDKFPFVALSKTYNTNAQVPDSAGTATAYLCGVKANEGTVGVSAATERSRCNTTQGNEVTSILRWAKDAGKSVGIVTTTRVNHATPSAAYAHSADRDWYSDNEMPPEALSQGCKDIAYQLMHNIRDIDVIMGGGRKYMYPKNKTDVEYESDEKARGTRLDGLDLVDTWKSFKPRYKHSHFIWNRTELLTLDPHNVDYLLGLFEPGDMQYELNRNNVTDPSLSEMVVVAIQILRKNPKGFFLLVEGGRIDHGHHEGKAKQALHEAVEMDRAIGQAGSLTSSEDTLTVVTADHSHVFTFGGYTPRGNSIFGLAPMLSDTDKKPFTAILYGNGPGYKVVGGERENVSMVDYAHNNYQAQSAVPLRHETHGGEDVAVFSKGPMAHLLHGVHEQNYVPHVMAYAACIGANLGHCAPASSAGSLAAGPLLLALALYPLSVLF
Briefly: human TNAP enzyme inhibitors, SAR follow-up, biochemical, luminescent, dose response (AID 1056).

In data set [13] the target is T7, Protein skinhead-1 (Caenorhabditis elegans, UniProt P34707).
T7 sequence (P34707 whole entry): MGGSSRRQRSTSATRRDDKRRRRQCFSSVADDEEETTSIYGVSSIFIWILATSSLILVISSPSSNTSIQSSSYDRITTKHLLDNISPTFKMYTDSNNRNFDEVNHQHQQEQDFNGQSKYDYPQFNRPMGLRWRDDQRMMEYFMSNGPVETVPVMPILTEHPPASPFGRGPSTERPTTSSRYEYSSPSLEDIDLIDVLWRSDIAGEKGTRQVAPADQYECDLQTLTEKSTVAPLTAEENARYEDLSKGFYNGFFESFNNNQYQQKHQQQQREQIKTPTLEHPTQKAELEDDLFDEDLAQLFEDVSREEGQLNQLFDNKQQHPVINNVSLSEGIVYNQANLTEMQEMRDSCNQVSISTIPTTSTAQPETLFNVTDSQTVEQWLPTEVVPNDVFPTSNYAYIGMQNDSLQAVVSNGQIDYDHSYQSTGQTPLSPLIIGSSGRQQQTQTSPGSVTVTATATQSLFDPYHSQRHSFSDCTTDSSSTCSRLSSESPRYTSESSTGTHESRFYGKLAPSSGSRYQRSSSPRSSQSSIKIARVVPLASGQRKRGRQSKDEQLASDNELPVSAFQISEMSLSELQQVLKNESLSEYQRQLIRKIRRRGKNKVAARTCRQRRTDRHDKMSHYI
Format: functional.

The target of data set [14] is Cytochrome P450 2D6 (Homo sapiens, UniProt P10635).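 Also: CYP2D6 member of a cytochrome P450 panel assay.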
Data set [15] addresses T8, Heat shock factor protein 1 (Mus musculus, UniProt P38532).
T8 sequence (P38532 whole entry): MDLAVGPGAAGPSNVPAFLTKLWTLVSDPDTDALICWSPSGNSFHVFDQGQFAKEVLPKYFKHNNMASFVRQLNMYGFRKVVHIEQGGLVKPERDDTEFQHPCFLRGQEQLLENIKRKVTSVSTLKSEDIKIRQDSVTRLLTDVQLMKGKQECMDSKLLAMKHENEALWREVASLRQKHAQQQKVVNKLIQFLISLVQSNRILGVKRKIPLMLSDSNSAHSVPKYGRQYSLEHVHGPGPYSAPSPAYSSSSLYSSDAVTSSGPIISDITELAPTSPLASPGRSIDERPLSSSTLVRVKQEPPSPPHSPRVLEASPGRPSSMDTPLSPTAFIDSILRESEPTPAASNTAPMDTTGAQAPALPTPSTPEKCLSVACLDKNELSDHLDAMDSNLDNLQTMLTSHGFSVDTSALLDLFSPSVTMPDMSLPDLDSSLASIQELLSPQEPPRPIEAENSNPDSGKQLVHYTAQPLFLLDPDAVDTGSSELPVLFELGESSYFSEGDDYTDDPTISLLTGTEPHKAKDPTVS
Briefly: inhibition of MG132-induced HSE-luciferase signal, confirmation, cell-based, NIH3T3, luminescence, dose retest (AID 2382).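 Also: NIH3T3 fibroblasts with HSF1-driven luciferase reporter stressed by proteasome inhibitor MG132; luminescence from HSF1-driven luciferase expression after 8 hours of MG132 stress.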 Format: functional.

The test system of data set [16] is H9c2. Briefly: cells. In kind it is functional, cell-based. To be noted: Rattus norvegicus, H9c2, Myocardium.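 Also: confirmatory concentration-response retest of ultra-high-throughput screening hits for modulation of myocardial damage; cell death induced by hydrogen peroxide oxidative stress; compound pretreatment for 60 min then peroxide exposure for 2 h; potency is for protecting the cells against peroxide damage rather than for killing them.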

Chain of Cytochrome P450 3A4 (P08684 whole entry): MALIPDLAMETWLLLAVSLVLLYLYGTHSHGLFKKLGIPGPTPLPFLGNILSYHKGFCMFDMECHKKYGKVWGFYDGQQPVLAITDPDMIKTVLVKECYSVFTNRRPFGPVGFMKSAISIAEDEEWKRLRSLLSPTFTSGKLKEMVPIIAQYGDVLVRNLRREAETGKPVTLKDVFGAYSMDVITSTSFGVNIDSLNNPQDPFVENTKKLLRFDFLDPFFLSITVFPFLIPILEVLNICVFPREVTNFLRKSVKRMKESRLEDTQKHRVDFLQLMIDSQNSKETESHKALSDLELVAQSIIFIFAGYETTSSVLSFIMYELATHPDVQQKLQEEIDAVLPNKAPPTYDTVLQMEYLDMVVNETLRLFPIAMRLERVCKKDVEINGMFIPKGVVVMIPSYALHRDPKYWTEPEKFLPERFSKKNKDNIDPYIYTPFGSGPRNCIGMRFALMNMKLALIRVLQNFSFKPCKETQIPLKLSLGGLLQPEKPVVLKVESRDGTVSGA
Chain of Glyceraldehyde-3-phosphate dehydrogenase (P04406 whole entry): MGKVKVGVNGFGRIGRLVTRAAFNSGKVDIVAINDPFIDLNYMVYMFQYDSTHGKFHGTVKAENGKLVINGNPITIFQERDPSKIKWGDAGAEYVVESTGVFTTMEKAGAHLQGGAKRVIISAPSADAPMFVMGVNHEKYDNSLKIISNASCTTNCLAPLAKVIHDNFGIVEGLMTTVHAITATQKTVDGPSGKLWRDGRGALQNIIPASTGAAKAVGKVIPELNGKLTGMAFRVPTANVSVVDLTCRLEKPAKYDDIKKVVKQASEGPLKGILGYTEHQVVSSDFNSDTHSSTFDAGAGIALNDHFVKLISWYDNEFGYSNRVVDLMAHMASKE
Chain of Cytochrome P450 2C9 (P11712 whole entry): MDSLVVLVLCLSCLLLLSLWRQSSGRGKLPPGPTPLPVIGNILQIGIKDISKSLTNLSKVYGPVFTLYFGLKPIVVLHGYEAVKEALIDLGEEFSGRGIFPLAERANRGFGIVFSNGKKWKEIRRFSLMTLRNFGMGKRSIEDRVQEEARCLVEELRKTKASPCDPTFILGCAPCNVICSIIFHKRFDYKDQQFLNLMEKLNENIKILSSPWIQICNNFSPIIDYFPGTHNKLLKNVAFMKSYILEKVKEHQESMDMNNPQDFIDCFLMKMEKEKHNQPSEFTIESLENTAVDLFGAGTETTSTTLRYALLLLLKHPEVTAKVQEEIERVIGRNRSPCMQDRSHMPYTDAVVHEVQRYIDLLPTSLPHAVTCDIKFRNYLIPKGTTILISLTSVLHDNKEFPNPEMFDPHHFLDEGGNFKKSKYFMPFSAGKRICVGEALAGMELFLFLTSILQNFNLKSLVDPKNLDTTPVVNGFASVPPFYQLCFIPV
Chain of Melanocortin receptor 4 (P32245 whole entry): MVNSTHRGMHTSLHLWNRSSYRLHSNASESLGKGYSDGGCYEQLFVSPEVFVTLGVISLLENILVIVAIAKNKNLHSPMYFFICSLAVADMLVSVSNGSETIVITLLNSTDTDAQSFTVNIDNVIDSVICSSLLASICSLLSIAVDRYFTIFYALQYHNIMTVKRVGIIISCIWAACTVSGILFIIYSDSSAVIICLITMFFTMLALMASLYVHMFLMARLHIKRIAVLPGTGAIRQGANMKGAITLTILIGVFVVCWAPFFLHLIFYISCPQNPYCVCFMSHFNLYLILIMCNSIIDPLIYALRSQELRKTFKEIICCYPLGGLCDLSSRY
Chain of Cytochrome P450 2D6 (P10635 whole entry): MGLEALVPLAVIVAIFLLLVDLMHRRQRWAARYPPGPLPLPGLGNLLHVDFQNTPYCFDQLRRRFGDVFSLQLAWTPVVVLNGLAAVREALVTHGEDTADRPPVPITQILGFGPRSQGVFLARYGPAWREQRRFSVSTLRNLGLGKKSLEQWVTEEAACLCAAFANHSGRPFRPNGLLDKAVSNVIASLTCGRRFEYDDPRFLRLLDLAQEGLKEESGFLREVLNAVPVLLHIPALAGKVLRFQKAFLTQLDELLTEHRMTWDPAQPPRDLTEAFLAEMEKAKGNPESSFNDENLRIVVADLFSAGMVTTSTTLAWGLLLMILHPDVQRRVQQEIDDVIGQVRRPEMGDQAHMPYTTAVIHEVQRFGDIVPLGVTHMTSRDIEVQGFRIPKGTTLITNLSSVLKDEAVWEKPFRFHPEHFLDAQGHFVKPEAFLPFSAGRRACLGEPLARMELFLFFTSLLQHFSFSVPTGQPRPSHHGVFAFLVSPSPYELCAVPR
Chain of Eukaryotic translation initiation factor 4E (P63073 whole entry): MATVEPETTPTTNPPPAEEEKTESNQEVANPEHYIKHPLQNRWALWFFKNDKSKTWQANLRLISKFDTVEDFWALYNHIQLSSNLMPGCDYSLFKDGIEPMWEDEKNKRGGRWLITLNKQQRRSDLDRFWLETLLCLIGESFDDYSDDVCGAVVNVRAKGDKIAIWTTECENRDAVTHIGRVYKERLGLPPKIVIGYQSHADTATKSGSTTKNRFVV

On to `CCN(CC)S(=O)(=O)c1ccc(Cl)c(NC(=O)c2cc(Cl)ccc2Cl)c1`, for which the EC50 in data set [1] and in data set [2] was > 99 µM (inactive) each time.
`CC(=O)CC(=O)[C@@]1(O)CC[C@@H]2[C@@H]3C=C(C)C4=CC(=O)CC[C@@H]4[C@H]3CC[C@]21C`: the AC50 in [3] is 12.6 µM (inconclusive); in data set [4], “inconclusive”.
Consider `O=C(c1ccc(Cl)cc1)N1CCN(C(=O)c2ccco2)CC1`, for which the AC50 entry in [4] was “inconclusive”.
`COc1ccc(C2c3cc(OC)c(OC)cc3CCN2S(C)(=O)=O)cc1OC` (configuration not stated): the EC50 in data set [5] and in [6] was > 300 µM (not active) each time. Besides, the IC50 in data set [7] was 50 µM (inactive); in data set [8], > 50 µM (inactive).
As to `C/C=C1\C(=O)C[C@@H]2[C@@H]3CCC4=CC(=O)CC[C@@]4(C)[C@H]3CC[C@@]12C`, the AC50 was 39.8 µM (inconclusive) in data set [3] and “inconclusive” in [4].
With `CCOC(=O)Cc1csc(NC(=O)c2sc3nc4cc(C)ccc4cc3c2N)n1`, the EC50 is 27.2 µM (inconclusive) in [5], 1.62 µM (inconclusive) in [6] and > 89.2 µM (inactive) in data set [9].
`CC(=O)c1cc2c(C)c(C(=O)c3ccccc3)oc2cc1O`: the EC50 in data set [1] and in [2] was > 99 µM (inactive) throughout.
Consider `COCCNc1cc(-c2ccccc2C(F)(F)F)ncn1`, for which the AC50 in data set [10] is 15.8 µM (inconclusive); in data set [4], “inconclusive”.
As for `CCOC(=O)c1cc(-c2ccc(Cl)cc2)n[nH]1`, the values for the IC50 in data set [11] and in data set [12] were > 100 µM (not active) and 2.35 µM (active), respectively.
Take `COc1ccccc1C(=O)Nc1ccc2ccccc2c1`: the IC50 in data set [11] was > 10 µM (inconclusive); in data set [12], > 10 µM (inactive); in [13] it was 42.7 µM (active).
Take `Cc1ccc(-c2cc(C(=O)O)[nH]n2)c(C)c1`: the IC50 in [11] was > 100 µM (not active); in data set [12], 3.34 µM (active).
Turning to `CCOC(=O)c1ccc2c(c1)nc(C1CCN(S(=O)(=O)c3cccs3)CC1)n2CC`, the IC50 in data set [8] is > 50 µM (inactive).
Take `NC1=Nc2ccccc2Oc2ccccc21`: the AC50 in data set [14] was 20 µM (inconclusive); in data set [4] it was “inconclusive”.
As for `O=S(=O)(Nc1ccc2ncccc2c1)c1cc(Cl)ccc1Cl`, the IC50 in [11] is > 100 µM (not active); in data set [12], > 100 µM (inactive).
On to `O=C(O)CC1(CC(=O)NCc2ccncc2)CCCCC1`, for which, in data set [8], the IC50 is > 50 µM (inactive).
With `Cc1cc(O)c(/C=N/c2ccc(N3CCOCC3)cc2)c(C)c1Cl`, the EC50 in data set [15] is > 195 µM (not active); in data set [1] it was 53.5 µM (inactive); in [2] it was > 99 µM (inactive). In addition, the IC50 in [16] is > 79 µM (inactive).
As to `CC(=O)Nc1cc(-c2ccccc2N(C)C)cn2c(-c3ccccc3)cnc12`, in data set [9], the EC50 was > 89.2 µM (inactive).
With `Cc1cc(C)n(/N=C/c2ccccc2)c(=O)c1C#N`, the IC50 in [8] is > 50 µM (inactive).
